Consider 3 compounds from patent US6589773B1, “Methods and compositions for a modified yeast strain with increased permeability and uses thereof” (priority 2000, dated 2003).

The structures appear in SMILES notation. Values after ≈ are worked out from the molar mass of the structure shown.

Test [1] relates to modified strains SKY54 and SKY197. In words: Yeast strain sensitivity to selected compounds (top-agar death zones / MIC), modified strains. The format is cell-based, S. cerevisiae. The settings on record: for change of sensitivity on induction of HXT9 and HXT11 expression: Gal/Raff containing media; for sensitivity relative to parental strains SKY48 and SKY191, based on the size of the death zones: YPD media, same concentration. As for the experimental part:
As used herein, “hyperpermeable” yeast cells or a “hyperpermeable” yeast strain, are yeast cells and strains which have an increased sensitivity to one or more test compounds, relative to the sensitivity of the yeast cells and strains without the above-described insertion-disruption of genes that alter cellular permeability. Sensitivity to such compounds and small molecules is determined by measuring the MIC (minimal inhibitory concentration) of such compounds to visible growth of yeast cells, disregarding a haze of barely visible growth of such yeast cells.
(§1) Decreasing concentrations of cycloheximide, 4-nitroquinolin-oxide, sulfmethuron methyl, and Zeocin were plated on parental yeast strains SKY48 and SKY191 and the modified yeast strains SKY54 and SKY197. From top to bottom of each plate, and from left to right of each row: 5 μg, 2.5 μg, 1 μg, 0.5 μg, 0.2 μg, and 50 ng of CYH; 2.5 μg, 1.25 μg, 0.5 μg, 0.25 μg, 0.1 μg, and 25 ng of NQO; 100 μg, 50 μg, 20 μg, 10 μg, 4 μg, and 1 μg of SMM; and 100 μg, 50 μg, 20 μg, 10 μg, 4 μg, and 1 μg of Zeo.
Yeast strain sensitivity to selected compounds SKY54 and SKY197 were tested for sensitivity to various concentrations of compounds, including cycloheximide (CYH), 4-nitroquinolin-oxide (NQO), sulfmethuron methyl (SMM) and Zeocin (Zeo), relative to the sensitivity of the parental strains, SKY48 and SKY191 to these compounds. Yeast cells were propagated on YPD or YPG/R plates in top-agar layer containing 1% of low melt SeaPlaque agarose and YPD or YPG/R growth media with glucose or galactose as the carbon source. CYH (5 mg/ml), NQO (2.5 mg/ml), SMM (100 mg/ml) and Zeo (100 mg/ml) stock solutions were diluted 2, 5, 10, 25, and 100-fold, and applied on top-agar growing yeast by means of prone device. Sensitivity to various concentrations of compounds was scored by visualization of growth on this media, and the size of “death zones” of sensitive colonies. Thus, the plates shown in FIG. 15 show the sensitivity of the parental and modified yeast strains to, from top to bottom of each plate, and from left to right of each row, 5 μg, 2.5 μg, 1 μg, 0.5 μg, 0.2 μg, and 50 ng of CYH; 2.5 μg, 1.25 μg, 0.5 μg, 0.25 μg, 0.1 μg, and 25 ng of NQO; 100 μg, 50 μg, 20 μg, 10 μg, 4 μg, and 1 μg of SMM; and 100 μg, 50 μg, 20 μg, 10 μg, 4 μg, and 1 μg of Zeo. […] When SKY54 and SKY197 were incubated on Gal/Raff containing media, thereby inducing expression of HXT9 and HXT11 genes, the sensitivity to CYH and 4-NQO increased. The estimated increase of death zone diameters for 4-NQO for SKY54 and SKY 197 on Gal/Raff media in comparison with the parental strains grown on the same media was ˜32-40%. After 48 hours of incubation on Gal/Raff media, sensitivity to CYH was estimated to be 0.01 μg/ml MIC (minimal inhibitory concentration). The MIC is defined as the lowest concentration (micrograms per milliliter of broth) that inhibited visible growth, disregarding a haze of barely visible growth. Sensitivity to CYH of a yeast strain harboring PDR1 and PDR3 deletions, and the HXT11 gene overexpressed from a multicopy plasmid, was previously reported as having an MIC of 0.03 μg/ml CYH (Nourani et al., 1997, Mol. Cell. Biol. 17:5453-5460). […] A comparative analysis of parental strain SKY48 and obtained SKY54 to 73,400 compounds from the SMT chemical library is shown in Table 2. SKY48 is sensitive to 1,959 compounds while SKY54 is sensitive to 3,011 compounds. Thus, SKY54 was sensitive to 154% as many compounds as the parental strain, SKY48.

In test [2] the test system is yeast strain harboring PDR1 and PDR3 deletions, and the HXT11 gene overexpressed from a multicopy plasmid. To be noted: previously reported, Nourani et al., 1997; cited from earlier work.
The subject of test [3] is parental strains SKY48 and SKY191. In words: Yeast strain sensitivity to selected compounds (top-agar death zones), parental strains. The test is classed as cell-based, S. cerevisiae. The settings on record: all concentrations tested (100 μg to 1 μg). On the procedure: as §1
SKY48 and SKY191 parental strains The parent strains SKY48 and SKY 191 (MATαtrp1 URA3 his3 lexAop-LEU2 cIop-LYS2), with 6 or 2 lexA operators upstream of LEU2, respectively, have been described (Serebriiskii et al., 1999, J. Biol. Chem. 274:17080-17087, which is incorporated herein by reference in its entirety).
Yeast strain sensitivity to selected compounds SKY54 and SKY197 were tested for sensitivity to various concentrations of compounds, including cycloheximide (CYH), 4-nitroquinolin-oxide (NQO), sulfmethuron methyl (SMM) and Zeocin (Zeo), relative to the sensitivity of the parental strains, SKY48 and SKY191 to these compounds. […] Sensitivity to various concentrations of compounds was scored by visualization of growth on this media, and the size of “death zones” of sensitive colonies. […]

As to `O=[N+]([O-])c1cc[n+]([O-])c2ccccc12` [4-NQO, 4-nitroquinolin-oxide], in test [1], the “change of sensitivity on induction of HXT9 and HXT11 expression” value is recorded as “increased”; the “sensitivity relative to parental strains SKY48 and SKY191, based on the size of the death zones” value is on record as “significantly more sensitive”. In addition, the “estimated increase of death zone diameters in comparison with the parental strains” value in test [1] (Gal/Raff media, parental strains grown on the same media) is on record as 32-40%.

Regarding `C[C@@H]1C[C@@H]([C@H](O)CC2CC(=O)NC(=O)C2)C(=O)[C@@H](C)C1` [CYH, cycloheximide], the MIC was 0.03 µg/mL (≈ 0.107 µM) in test [2] and 0.01 µg/mL (≈ 0.0355 µM) in test [1] (Saccharomyces cerevisiae, SKY54ANDSKY197, 48 h, read-out: MIC (minimal inhibitory concentration)). Moreover, in test [1], the “change of sensitivity on induction of HXT9 and HXT11 expression” value is given as “increased”. The “sensitivity relative to parental strains SKY48 and SKY191, based on the size of the death zones” value in test [1] is given as “significantly more sensitive”.

Take `COC(=O)c1ccccc1S(=O)(=O)NC(=O)Nc1nc(C)cc(C)n1` [SMM, sulfmethuron methyl]: the “sensitivity (growth, size of death zones)” value is “no sensitivity” in test [3]; “no sensitivity” in test [1] (SKY54 and SKY197, all concentrations tested (100 μg to 1 μg)).
